{"source": "ChEMBL document CHEMBL1129394", "about": "“Studies on selectin blocker. 3. Investigation of the carbohydrate ligand sialyl Lewis X recognition site of P-selectin” (J Med Chem, 1996)", "target": "T1, P-selectin (Homo sapiens, UniProt P16109)", "T1 sequence (P16109 whole entry)": "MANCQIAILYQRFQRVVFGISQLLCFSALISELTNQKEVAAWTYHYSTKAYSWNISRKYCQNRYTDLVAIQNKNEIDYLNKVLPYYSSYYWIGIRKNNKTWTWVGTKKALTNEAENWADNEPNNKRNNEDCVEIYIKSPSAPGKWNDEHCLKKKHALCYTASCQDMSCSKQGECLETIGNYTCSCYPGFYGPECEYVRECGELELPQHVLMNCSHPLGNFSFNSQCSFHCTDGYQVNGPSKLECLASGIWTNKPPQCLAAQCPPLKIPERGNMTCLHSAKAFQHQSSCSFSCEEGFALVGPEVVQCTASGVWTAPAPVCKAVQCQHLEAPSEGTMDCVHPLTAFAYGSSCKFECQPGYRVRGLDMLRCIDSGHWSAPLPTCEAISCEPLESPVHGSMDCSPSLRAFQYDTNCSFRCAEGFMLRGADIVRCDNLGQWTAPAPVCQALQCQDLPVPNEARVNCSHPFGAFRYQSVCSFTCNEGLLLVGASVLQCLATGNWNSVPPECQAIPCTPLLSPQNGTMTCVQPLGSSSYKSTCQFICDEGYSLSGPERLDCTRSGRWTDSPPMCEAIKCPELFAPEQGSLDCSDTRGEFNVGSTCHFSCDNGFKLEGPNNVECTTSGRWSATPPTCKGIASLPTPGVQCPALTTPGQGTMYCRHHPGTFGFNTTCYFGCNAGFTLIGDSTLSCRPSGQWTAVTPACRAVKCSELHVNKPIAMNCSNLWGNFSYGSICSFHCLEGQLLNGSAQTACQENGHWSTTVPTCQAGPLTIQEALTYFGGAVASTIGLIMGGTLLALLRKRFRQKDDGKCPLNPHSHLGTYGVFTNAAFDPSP", "experiment": "Blocking activity on Selectin P ligand binding", "data": [{"smiles": "CC(=O)N[C@H]1[C@H]([C@H](O)[C@H](O)CO)O[C@@](O[C@H]2[C@@H](O)[C@@H](CO)O[C@@H](O[C@@H]([C@H](O[C@@H]3O[C@@H](C)[C@@H](O)[C@@H](O)[C@@H]3O)[C@H](C=O)NC(C)=O)[C@H](O)CO)[C@@H]2O)(C(=O)O)C[C@@H]1O", "note": "[SIALYL LEWIS X]", "values": [{"measurement": "IC50", "result": "> 1000", "unit": "µM"}]}]}
